In this assay the test system is C57 BL/6J-ob/ob mice. The assay is described as follows: test for hypoglycemic effect in ob/ob mice. It is filed as in vivo. Particulars: plasma glucose on day 5, ob/ob mice dosed daily for five days, 50 mg/kg in 0.25% w/v methyl cellulose; value given as an example (e.g.). The source says:
The present compounds of the formula (I) are readily adapted to clinical use as hypoglycemic or hypocholesterolemic agents. The activity required for this former clinical use is defined by the test for hypoglycemic effect in ob/ob mice by the following procedure:
Five to eight week old C57 BL/6J-ob/ob mice (obtained from Jackson Laboratory, Bar Harbor, Maine) were housed five per cage under standard animal care practices. After a one week acclimation period, the animals were weighed and 25 microliters of blood was collected via an ocular bleed prior to any treatment. The blood sample was immediately diluted 1:5 with saline containing 2.5 mg/ml sodium fluoride and 2% sodium heparin, and held on ice for metabolite analysis. […] The supernatant was analyzed for glucose, for example, by the ABA 200 Bichromatic Analyzer™, using the A-gent™ glucose UV reagent system* (hexokinase method) using 20, 60 and 100 mg/dl standards. Plasma glucose was then calculated by the equation, Plasma glucose (mg/dl) = Sample value x 5 x 1.67 = 8.35 x Sample value [formula] where 5 is the dilution factor and 1.67 is the plasma hematocrit adjustment (assuming the hematocrit is 40%). ™A registered trademark of Abbott Laboratories, Diagnostics Division, 820 Mission Street, So. […]

For the compound `CC1(COc2ccc(CC3SC(=O)NC3=O)cc2)CCCCC1` (stereo not shown) [positive control, ciglitazone], the glucose levels was about 130 mg/dL.

The values above are taken from patent EP0332332B1, “Hypoglycemic thiazolidinedione derivatives” (PFIZER INC., priority 1988, dated 1989).
